Laboratory results reported in US4385055A, “2-Acetyl-and 2-propionylpyridine thiosemicarbazones as antimalarials” (The United States of America as represented by the …, priority 1981, dated 1983).
Converted amounts (≈) assume the structure as drawn. Like-named read-outs stand apart in the source and are kept apart here.

Assays:
Type in all cases: cell-based
Mycobacterium smegmatis = assay: MIC against Mycobacterium smegmatis strains (Test 4); details: Mycolicibacterium smegmatis, read-out: Minimum Inhibitory Concentration
Experimental: Compounds were tested against four strains of Mycobacterium smegmatis. The test procedure used was as mentioned by N. E. Morrison [Int. J. of Leprosy 39:34-43 (1971)]. The strain numbers refer to Mycobacterium smegmatis ATCC 607, a DDS-resistant daughter strain, a Rifampin-resistant daughter strain, and a Clofazimine-resistant daughter strain, respectively.

Neisseria meningitidis = assay: Macro broth dilution MIC, Neisseria meningitidis isolates (Test 2); details: for MIC: Neisseria meningitidis, 24 h, read-out: Minimum Inhibitory Concentration
Experimental: Compounds were tested against five isolates of Neisseria meningitidis. The bacterial isolates were provided by the Department of Bacterial Diseases of the Walter Reed Army Institute of Research. The test procedure used was the macro broth dilution method in duplicate outlined by J. C. Sherris on pages 414-415 (loc. cit.). The test compounds and controls were prepared as in Test 1 above. Ampicillin and penicillin standards were initially diluted as described by J. C. Sherris on pages 411-412 (loc. cit.) followed by dilution with Mueller-Hinton broth. The tubes were incubated at 37° C. under 5-10% carbon dioxide.

Group D Enterococcus = assay: Macro broth dilution MIC, Group D Enterococcus isolates (Test 1); details: 24 h, read after 24 hours, read-out: Minimum Inhibitory Concentration
Experimental: Compounds were tested against five isolates of Staphylococcus aureus and five isolates of Group D Enterococcus. The bacteria used were isolated from patients at the Walter Reed Army Medical Center, Washington, D.C. The test procedure used was the macro broth dilution method in duplicate as outlined by J. C. Sherris on pages 414-415 in "Manual of Clinical Microbiology," 2nd ed., E. Lennette, E. H. Spaulding, and J. P. Truant, Ed. (American Society for Microbiology, Washington, D.C., 1974). Each compound was dissolved in DMSO (12.8 mg/mL) and then diluted with Mueller-Hinton broth to obtain the desired dilutions. Tubes containing the highest quantities of DMSO with no compound present were run as controls.

Neisseria gonorrhoeae = assay: Agar dilution MIC, Neisseria gonorrhoeae isolates (Test 3); details: 24 h
Experimental: Compounds were tested against six Neisseria gonorrhoeae isolates. The bacteria used were provided by the Department of Bacterial Diseases of the Walter Reed Army Institute of Research. The test procedure used was the agar dilution method in duplicate as outlined by J. C. Sherris on pages 411-412 (loc. cit.). GC Medium (Difco) with a 2% defined supplement added as described by D. S. Kellogg et al. [J. Bact. 85:1274-1279 (1963)] was used as the media. The compounds were dissolved in DMSO (1.0 mg/mL), diluted with GC broth (GC Medium without agar) to the appropriate concentration, and added to the GC Medium at 55°-56° C. The latter was then poured and allowed to solidify. A penicillin standard was also prepared with initial dilutions as described by J. C. Sherris followed by dilutions with GC broth and addition to the GC Medium at 55°-56° C. as above. The inoculum was 1:200 GC broth dilution of a suspension of colony isolates after the suspension was adjusted visually to the turbidity standard described by J. M. Matsen and A. L. Barr on page 422 in "Manual of Clinical Microbiology," 2nd ed., E. Lennette, E. H. Spaulding, and J. P. Truant, Ed. (American Society for Microbiology, Washington, D.C., 1974). The plates were inoculated with a replicator and incubated at 37° C. under 5-10% carbon dioxide.

[1] = test system: Mycobacterium intracellulare; assay: Broth dilution MIC, Mycobacterium intracellulare strains (Test 6); details: read-out: Minimum Inhibitory Concentration
[2] = ATCC607, Mycobacterium smegmatis strain I (ATCC 607)
[3] = Mycobacterium smegmatis strain II (DDS-resistant daughter strain)
[4] = Mycobacterium smegmatis strain III (Rifampin-resistant daughter strain)
[5] = Mycobacterium smegmatis strain IV (Clofazimine-resistant daughter strain)
[6] = Neisseria meningitidis isolate 7957, read after 24 hours
[7] = Neisseria meningitidis isolate 7990, read after 24 hours
[8] = Neisseria meningitidis isolate 8005, read after 24 hours
[9] = Neisseria meningitidis isolate 8006, read after 24 hours
[10] = Neisseria meningitidis isolate 8011, read after 24 hours
[11] = Neisseria gonorrhoeae isolate 135, read after 24 hours, read-out: Minimum Inhibitory Concentration
[12] = Neisseria gonorrhoeae isolate 161, read after 24 hours, read-out: Minimum Inhibitory Concentration
[13] = Neisseria gonorrhoeae isolate 278, read after 24 hours, read-out: Minimum Inhibitory Concentration
[14] = Neisseria gonorrhoeae isolate 455, read after 24 hours, read-out: Minimum Inhibitory Concentration
[15] = Neisseria gonorrhoeae isolate 456, read after 24 hours, read-out: Minimum Inhibitory Concentration
[16] = Neisseria gonorrhoeae isolate 602, read after 24 hours, read-out: Minimum Inhibitory Concentration

| Structure (SMILES) | MIC (Mycobacterium smegmatis; [2]) [µg/mL] | MIC (Mycobacterium smegmatis; [3]) [µg/mL] | MIC (Mycobacterium smegmatis; [4]) [µg/mL] | MIC (Mycobacterium smegmatis; [5]) [µg/mL] | MIC (Neisseria gonorrhoeae; [11]) [µg/mL] | MIC (Neisseria gonorrhoeae; [12]) [µg/mL] | MIC (Neisseria gonorrhoeae; [13]) [µg/mL] | MIC (Neisseria gonorrhoeae; [14]) [µg/mL] | MIC (Neisseria gonorrhoeae; [15]) [µg/mL] | MIC (Neisseria gonorrhoeae; [16]) [µg/mL] | also measured |
| --- | --- | --- | --- | --- | --- | --- | --- | --- | --- | --- | --- |
| C=CCNC(=S)NN=C(C)c1ccccn1 [A, 2-Acetylpyridine 4-allyl-3-thiosemicarbazone] | < 1 | < 1 | < 1 | < 1 |  |  |  |  |  |  |  |
| CC1(C)S[C@@H]2[C@H](NC(=O)[C@H](N)c3ccccc3)C(=O)N2[C@H]1C(=O)O [Ampicillin, reference compound] |  |  |  |  |  |  |  |  |  |  | MIC (Neisseria meningitidis; [6]): 0.008 µg/mL (≈ 0.0229 µM); MIC (Neisseria meningitidis; [7]): 0.008 µg/mL (≈ 0.0229 µM); MIC (Neisseria meningitidis; [8]): 0.008 µg/mL (≈ 0.0229 µM); MIC (Neisseria meningitidis; [9]): 0.016 µg/mL (≈ 0.0458 µM); MIC (Neisseria meningitidis; [10]): 0.016 µg/mL (≈ 0.0458 µM) |
| CC(C)/N=c1\cc2n(-c3ccc(Cl)cc3)c3ccccc3nc-2cc1Nc1ccc(Cl)cc1 [Clofazimine, reference compound] | 1.5 (≈ 3.17 µM) |  |  | 20 (≈ 42.2 µM) |  |  |  |  |  |  |  |
| Nc1ccc(S(=O)(=O)c2ccc(N)cc2)cc1 [DDS, reference compound] | 2 (≈ 8.05 µM) | 400 (≈ 1610 µM) |  |  |  |  |  |  |  |  |  |
| CC(=NNC(=S)N1CCC1)c1ccccn1 [FF, Azetidine-1-thiocarboxylic acid 2-[1-(2-pyridyl)ethylidene]hydrazide] | 2 (≈ 8.54 µM) | 2 (≈ 8.54 µM) | < 1 | < 1 |  |  |  |  |  |  |  |
| CC(=NNC(=S)NC(C)(C)CC(C)(C)C)c1ccccn1 [G, 2-Acetylpyridine 4-(1,1,3,3-tetramethylbutyl)-3-thiosemicarbazone] |  |  |  |  |  |  |  |  |  |  | MIC (Group D Enterococcus; Group D Enterococcus isolate I): 8 µg/mL (≈ 26.1 µM); MIC (Group D Enterococcus; Group D Enterococcus isolate II): 4 µg/mL (≈ 13.1 µM); MIC (Group D Enterococcus; Group D Enterococcus isolate III): 4 µg/mL (≈ 13.1 µM); MIC (Group D Enterococcus; Group D Enterococcus isolate IV): 4 µg/mL (≈ 13.1 µM); MIC (Group D Enterococcus; Group D Enterococcus isolate V): 4 µg/mL (≈ 13.1 µM) |
| CC(=NNC(=S)N1CCCCC1)c1ccccn1 [GG, Piperidine-1-thiocarboxylic acid 2-[1-(2-pyridyl)ethylidene]hydrazide] |  |  |  |  | 0.008 (≈ 0.0305 µM) | 0.004 (≈ 0.0152 µM) | 0.008 (≈ 0.0305 µM) | 0.008 (≈ 0.0305 µM) | 0.008 (≈ 0.0305 µM) | 0.008 (≈ 0.0305 µM) |  |
| CC(=NNC(=S)N1CCCC1)c1ccccn1 [HH, 1-Azacyclopentane-1-thiocarboxylic acid 2-[1-(2-pyridyl)ethylidene]hydrazide] | 2 (≈ 8.05 µM) | 3 (≈ 12.1 µM) | 2 (≈ 8.05 µM) | 4 (≈ 16.1 µM) | 0.008 (≈ 0.0322 µM) | 0.004 (≈ 0.0161 µM) | 0.008 (≈ 0.0322 µM) | 0.008 (≈ 0.0322 µM) | 0.008 (≈ 0.0322 µM) | 0.008 (≈ 0.0322 µM) |  |
| CCC(=NNC(=S)N(C)C)c1ccccn1 [JJ, 2-Propionylpyridine 4,4-dimethyl-3-thiosemicarbazone] |  |  |  |  | 0.016 (≈ 0.0677 µM) | 0.004 (≈ 0.0169 µM) | 0.016 (≈ 0.0677 µM) | 0.008 (≈ 0.0338 µM) | 0.008 (≈ 0.0338 µM) | 0.008 (≈ 0.0338 µM) |  |
| CC(=NNC(=S)N1CCN(c2ccccc2)CC1)c1ccccn1 [K, 1,4-Diaza-4-phenylcyclohexane-1-thiocarboxylic acid 2-[1-(2-pyridyl)ethylidene]hydrazide] |  |  |  |  | 0.031 (≈ 0.0913 µM) | < 0.008 | 0.031 (≈ 0.0913 µM) | 0.031 (≈ 0.0913 µM) | 0.016 (≈ 0.0471 µM) | 0.031 (≈ 0.0913 µM) | MIC (Neisseria meningitidis; [6]): 0.062 µg/mL (≈ 0.183 µM); MIC (Neisseria meningitidis; [7]): 0.062 µg/mL (≈ 0.183 µM); MIC (Neisseria meningitidis; [8]): 1 µg/mL (≈ 2.95 µM); MIC (Neisseria meningitidis; [9]): 0.062 µg/mL (≈ 0.183 µM); MIC (Neisseria meningitidis; [10]): 0.125 µg/mL (≈ 0.368 µM) |
| CC1(C)S[C@@H]2[C@H](NC(=O)Cc3ccccc3)C(=O)N2[C@H]1C(=O)O [Penicillin, reference compound] |  |  |  |  |  |  |  |  |  |  | MIC (Neisseria gonorrhoeae; read-out: Minimum Inhibitory Concentration, Neisseria gonorrhoeae isolate 135, read after 24 hours): 0.25 µg/mL (≈ 0.748 µM); MIC (Neisseria gonorrhoeae; read-out: Minimum Inhibitory Concentration, Neisseria gonorrhoeae isolate 161, read after 24 hours): 0.125 µg/mL (≈ 0.374 µM); MIC (Neisseria gonorrhoeae; read-out: Minimum Inhibitory Concentration, Neisseria gonorrhoeae isolate 278, read after 24 hours): < 0.062 µg/mL; MIC (Neisseria gonorrhoeae; read-out: Minimum Inhibitory Concentration, Neisseria gonorrhoeae isolate 455, read after 24 hours): 0.125 µg/mL (≈ 0.374 µM); MIC (Neisseria gonorrhoeae; read-out: Minimum Inhibitory Concentration, Neisseria gonorrhoeae isolate 456, read after 24 hours): > 16 µg/mL; MIC (Neisseria gonorrhoeae; read-out: Minimum Inhibitory Concentration, Neisseria gonorrhoeae isolate 602, read after 24 hours): > 16 µg/mL; Minimum Inhibitory Concentration (Neisseria meningitidis; [7]): 0.031 µg/mL; Minimum Inhibitory Concentration (Neisseria meningitidis; [9]): 0.031 µg/mL; Minimum Inhibitory Concentration (Neisseria meningitidis; [10]): 0.031 µg/mL; MIC (Neisseria meningitidis): 0.031 µg/mL (≈ 0.0927 µM) |
| CC(=NNC(=S)N(C)C)c1ccccn1 [R, 2-Acetylpyridine 4,4-dimethyl-3-thiosemicarbazone] | 2 (≈ 9 µM) | 3 (≈ 13.5 µM) | 2 (≈ 9 µM) | 2 (≈ 9 µM) | 0.004 (≈ 0.018 µM) | 0.004 (≈ 0.018 µM) | 0.008 (≈ 0.036 µM) | 0.008 (≈ 0.036 µM) | 0.008 (≈ 0.036 µM) | 0.008 (≈ 0.036 µM) | MIC (Neisseria meningitidis; [6]): 0.062 µg/mL (≈ 0.279 µM); MIC (Neisseria meningitidis; [7]): 0.125 µg/mL (≈ 0.562 µM); MIC (Neisseria meningitidis; [8]): 0.062 µg/mL (≈ 0.279 µM); MIC (Neisseria meningitidis; [9]): 0.062 µg/mL (≈ 0.279 µM); MIC (Neisseria meningitidis; [10]): 0.125 µg/mL (≈ 0.562 µM) |
| CO[C@H]1/C=C/O[C@@]2(C)Oc3c(C)c(O)c4c(O)c(c(/C=N/N5CCN(C)CC5)c(O)c4c3C2=O)NC(=O)/C(C)=C\C=C\[C@H](C)[C@H](O)[C@@H](C)[C@@H](O)[C@@H](C)[C@H](OC(C)=O)[C@@H]1C [Rifampin, reference compound] | 1 (≈ 1.22 µM) |  | 250 (≈ 304 µM) |  |  |  |  |  |  |  |  |
| CC(=NNC(=S)N1CCN(c2ccccn2)CC1)c1ccccn1.Cl.Cl [W, 1,4-Diaza-4-(2-pyridyl)cyclohexane-1-thiocarboxylic acid 2-[1-(2-pyridyl)-ethylidene]hydrazide dihydrochloride] | 6 | 10 | 5 | 6 |  |  |  |  |  |  |  |
| CC(=NNC(=S)N1CCCCCCCCCCCC1)c1ccccn1 [Z, 1-Azacyclotridecane-1-thiocarboxylic acid 2-[1-(2-pyridyl)ethylidene]hydrazide] |  |  |  |  |  |  |  |  |  |  | MIC ([1]; Mycobacterium intracellulare strain I): 10 µg/mL (≈ 27.7 µM); MIC ([1]; Mycobacterium intracellulare strain II): 1 µg/mL (≈ 2.77 µM); MIC ([1]; Mycobacterium intracellulare strain III): 1 µg/mL (≈ 2.77 µM); MIC ([1]; Mycobacterium intracellulare strain IV): 10 µg/mL (≈ 27.7 µM); MIC ([1]; Mycobacterium intracellulare strain V): 10 µg/mL (≈ 27.7 µM); MIC ([1]; Mycobacterium intracellulare strain VI): 10 µg/mL (≈ 27.7 µM) |
